Results as given in US6720346B2, “Thiazole benzamide derivatives and pharmaceutical compositions for inhibiting cell proliferation” (Agouron Pharmaceuticals, Inc., priority 2001, dated 2004).
Structures can show the parent of a compound that is named as a salt.

Assays:
HCT-116 cell line = assay: Inhibition of cell growth, MTT tetrazolium salt assay; assay type: cell-based; conditions: for IC50: Homo sapiens, HCT-116, 120 h, MTT, three to five days
Description: Inhibition of cell growth was measured using the tetrazolium salt assay, which is based on the ability of viable cells to reduce 3-(4,5-dimethylthiazol-2-yl)-2,5-[2H]-diphenyltetrazolium bromide (MTT) to formazan (Mossman, Journal of Immunological Methods, 65, (1983), pp. 55-58). The water-insoluble purple formazan product was then detected spectrophotometrically. The HCT-116 cell line was used as a representative cancer cell line and grown in 96-well plates. Cells were plated in McCoy's 5A Medium at a volume of 135 μl/well. Plates were incubated for four hours before addition of inhibitor compounds. Different concentrations of inhibitor compounds were added in 0.5% (v/v) dimethylsulfoxide (15 μL/well), and cells were incubated at 37° C. (5% CO2) for three to five days. At the end of the incubation, MTT was added to a final concentration of 0.2 mg/mL, and cells were incubated for 4 hours more at 37° C. After centrifugation of the plates and removal of medium, the absorbance of the formazan (solubilized in dimethylsulfoxide) was measured at 540 nm. The concentration of inhibitor compound causing 50% (IC50) or 90% ([…]) inhibition of growth was determined from the linear portion of a semi-log plot of inhibitor concentration versus percent inhibition. All results were compared to control cells treated only with 0.5% (v/v) dimethylsulfoxide.

human CDK4/cyclin D3 = biological target: T1, human CDK4/cyclin D3 (Homo sapiens, UniProt P11802); assay: Inhibition of CDK4/cyclin D retinoblastoma kinase activity (Ki; % inhibition); assay type: biochemical; conditions: for Ki: apparent Ki, CDK4/cyclin D3, Rb substrate
T1 construct: made in house; host or cells: insect cells co-infected with baculovirus vectors
Description: (§1) Cyclin-dependent kinase activity was measured by quantifying the enzyme-catalyzed, time-dependent incorporation of radioactive phosphate from [^32P]ATP or [^33P]ATP into a protein substrate. Unless noted otherwise, assays were performed in 96-well plates in a total volume of 50 μL, in the presence of 10 mM HEPES (N-[2-hydroxyethyl]piperazine-N′-[2-ethanesulfonic acid]) (pH 7.4), 10 mM MgCl2, 25 μM adenosine triphosphate (ATP), 1 mg/mL ovalbumin, 5 μg/mL leupeptin, 1 mM dithiothreitol, 10 mM β-glycerophosphate, 0.1 mM sodium vanadate, 1 mM sodium fluoride, 2.5 mM ethylene glycol-bis(β-aminoethyl ether)-N,N,N′N′-tetraacetic acid (EGTA), 2% (v/v) dimethylsulfoxide, and 0.03-0.4 μCi [^32/33P]ATP per reaction. Reactions were initiated with enzyme, incubated at 30° C., and terminated after 20 minutes by the addition of ethylenediaminetetraacetic acid (EDTA) to 250 mM. The phosphorylated substrate was then captured on a nitrocellulose or phosphocellulose membrane using a 96-well filtration manifold, and unincorporated radioactivity was removed by repeated washing with 0.85% phosphoric acid. Radioactivity was quantified by exposing the dried membranes to a phosphorimager.
(§2) Compounds from combinatorial libraries were screened from 96-well plates for % inhibition of CDK activity at 30 nM theoretical compound concentration. Inhibition was measured relative to control wells that contained all reaction components including 2% (v/v) DMSO but no compound, after subtraction of background radioactivity measured in the absence of enzyme. Apparent Ki values of discrete compounds were measured by assaying enzyme activity in the presence of different inhibitor compound concentrations and subtracting the background radioactivity measured in the absence of enzyme. The kinetic parameters (kcat, Km for ATP) were measured for each enzyme under the usual assay conditions by determining the dependence of initial rates on ATP concentration. Inhibition data were fit to an equation for competitive inhibition using Kaleidagraph (Synergy Software), or were fit to an equation for competitive tight-binding inhibition using the software KineTic (BioKin, Ltd.).
A complex of human CDK4 and genetically truncated (1-264) cyclin D3 was purified using traditional biochemical chromatographic techniques from insect cells that had been co-infected with the corresponding baculovirus expression vectors (see e.g., Meijer and Kim, “Chemical Inhibitors of Cyclin-Dependent Kinases,” Methods in Enzymol., 283 (1997), pp. 113-128.). The enzyme complex (5 nM) was assayed with 0.3-0.5 μg of purified recombinant retinoblastoma protein fragment (Rb) as a substrate. The engineered Rb fragment (residues 386-928 of the native retinoblastoma protein; 62.3 kDa) contains the majority of the phosphorylation sites found in the native 106-kDa protein, as well as a tag of six histidine residues for ease of purification. Phosphorylated Rb substrate was captured by microfiltration on a nitrocellulose membrane and quantified using a phosphorimager as described above. For measurement of tight-binding inhibitors, the assay duration was extended to 60 minutes, during which the time-dependence of product formation was linear and initial rate conditions were met.

CDK2/cyclin A = biological target: T2, CDK2/cyclin A (Homo sapiens, UniProt P24941); assay: Inhibition of CDK2/cyclin A retinoblastoma kinase activity (Ki; % inhibition); assay type: biochemical; conditions: for Ki: apparent Ki, CDK2/cyclin A, Rb substrate
T2 construct: made in house; host or cells: CDK2: insect cells (baculovirus); cyclin A: E. coli
Description: as §1, §2
CDK2 was purified using published methodology (Rosenblatt et al., “Purification and Crystallization of Human Cyclin-dependent Kinase 2,” J. Mol. Biol., 230, 1993, pp. 1317-1319) from insect cells that had been infected with a baculovirus expression vector. […] A complex of CDK2 and proteolyzed cyclin A was prepared and purified by gel filtration. The substrate for this assay was the same Rb substrate fragment used for the CDK4 assays, and the methodology of the CDK2/delta cyclin A and the CDK4/delta cyclin D3 assays was essentially the same, except that CDK2 was present at 10 nM or 19 nM. The duration of the assay was 60 or 75 minutes, during which the time-dependence of product formation was linear and initial rate conditions were met.

T1 sequence (P11802 whole entry): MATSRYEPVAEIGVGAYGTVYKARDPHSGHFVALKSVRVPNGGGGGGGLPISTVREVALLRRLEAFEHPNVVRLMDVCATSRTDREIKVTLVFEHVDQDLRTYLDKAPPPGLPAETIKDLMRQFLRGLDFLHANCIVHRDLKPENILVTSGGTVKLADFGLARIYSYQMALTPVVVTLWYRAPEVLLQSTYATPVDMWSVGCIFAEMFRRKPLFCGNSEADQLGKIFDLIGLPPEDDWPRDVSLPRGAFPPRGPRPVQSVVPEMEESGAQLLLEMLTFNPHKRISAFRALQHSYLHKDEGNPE
T1 sequence (P30281 1-264 partner limits assumed): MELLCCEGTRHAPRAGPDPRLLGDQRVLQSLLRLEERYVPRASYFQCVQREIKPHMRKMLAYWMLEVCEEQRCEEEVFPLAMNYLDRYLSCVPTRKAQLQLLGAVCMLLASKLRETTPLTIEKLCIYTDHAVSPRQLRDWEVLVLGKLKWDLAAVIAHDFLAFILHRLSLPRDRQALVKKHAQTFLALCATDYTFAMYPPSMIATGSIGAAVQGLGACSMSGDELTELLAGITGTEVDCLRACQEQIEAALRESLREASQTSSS

Compound | IC50 (HCT-116 cell line) [nM] | Ki (human CDK4/cyclin D3) [nM] | Ki (CDK2/cyclin A) [nM] | HCT-116 % Inhibition at 0.1 μM (HCT-116 cell line; HCT-116 cells, 0.1 μM compound) [%] | HCT-116 % Inhibition at 0.25 μM (HCT-116 cell line; HCT-116 cells, 0.25 μM compound) [%] | CDK4 % Inhibition at 0.03 μM (human CDK4/cyclin D3; 0.03 μM compound) [%] | CDK2 % Inhibition at 0.03 μM (CDK2/cyclin A; 0.03 μM compound) [%]
CN1[C@@H]2CC[C@@H](C2)[C@@H]1CNC(=O)c1ccc(Nc2nc(N)c(C(=O)c3c(F)cccc3F)s2)cc1 (relative stereo) [Example A76, 4-[4-Amino-5-(2,6-difluoro-benzoyl)-thiazol-2-ylamino]-N-(2-methyl-2-aza-bicyclo[2.2.1]hept-3-endo-ylmethyl)-benzamide] | 1100 | 120 | 15 |  |  |  | 
Nc1nc(Nc2ccc(C(=O)NC[C@@H]3CCCC[C@H]3O)cc2)sc1C(=O)c1c(F)cccc1F (relative stereo) [Example G350] |  |  |  | 24 | 41 | 9 | 4
CN(C)CCNC(=O)c1ccc(Nc2nc(N)c(C(=O)c3c(F)cccc3F)s2)cc1Cl [C] | 210 | 27 | 170 |  |  |  | 
CN(C)CCN1C(=O)c2ccc(Nc3nc(N)c(C(=O)c4c(F)cccc4F)s3)cc2C1=O [E, 5-[4-Amino-5-(2,6-difluoro-benzoyl)-thiazol-2-ylamino]-2-(2-dimethylamino-ethyl)-isoindole-1,3-dione] |  | 240 | 400 |  |  |  | 
Nc1nc(Nc2ccc(C(=O)NCCN3CCOCC3)cc2)sc1C(=O)c1c(F)cccc1F [Example A1, 4-[4-Amino-5-(2,6-difluoro-benzoyl)-thiazol-2-ylamino]-N-(2-morpholin-4-yl-ethyl)-benzamide] | 750 | 27 | 140 |  |  |  | 
CN(C)CCNC(=O)c1ccc(Nc2nc(N)c(C(=O)c3c(F)cccc3F)s2)cc1 [Example A4] | 190 | 16 | 230 |  |  |  | 
Cc1ccc(CNC(=O)c2ccc(Nc3nc(N)c(C(=O)c4c(F)cccc4F)s3)cc2)o1 [Example A6, 4-[4-Amino-5-(2,6-difluoro-benzoyl)-thiazol-2-ylamino]-N-(5-methyl-furan-2-ylmethyl)-benzamide] | 220 | 15 | 7.5 |  |  |  | 
CC(C)OCCNC(=O)c1ccc(Nc2nc(N)c(C(=O)c3c(F)cccc3F)s2)cc1 [Example A7, 4-[4-Amino-5-(2,6-difluoro-benzoyl)-thiazol-2-ylamino]-N-(2-isopropoxy-ethyl)-benzamide] | 410 | 26 | 61 |  |  |  | 
Nc1nc(Nc2ccc(C(=O)NC[C@@H]3CCCN3)cc2)sc1C(=O)c1c(F)cccc1F [Example A8, 4-[4-Amino-5-(2,6-difluoro-benzoyl)-thiazol-2-ylamino]-N-(pyrrolidin-2S-yl-methyl)-benzamide] | 740 | 5 | 54 |  |  |  | 
CC(=O)N1CCC[C@H]1CNC(=O)c1ccc(Nc2nc(N)c(C(=O)c3c(F)cccc3F)s2)cc1 [Example A10, 4-[4-Amino-5-(2,6-difluoro-benzoyl)-thiazol-2S-ylamino]-N-(1-Acetyl-pyrrolidin-2S-ylmethyl)-benzamide] | 1600 | 49 | 290 |  |  |  | 
CN(C)C(C)(C)CNC(=O)c1ccc(Nc2nc(N)c(C(=O)c3c(F)cccc3F)s2)cc1 [Example A12, 4-[4-Amino-5-(2,6-difluoro-benzoyl)-thiazol-2-ylamino]-N-(2-dimethylamino-2-methyl-propyl)-benzamide] | 130 | 20 | 91 |  |  |  | 
Nc1nc(Nc2ccc(C(=O)NC3CCN(Cc4ccccc4)CC3)cc2)sc1C(=O)c1c(F)cccc1F [Example A13, 4-[4-Amino-5-(2,6-difluoro-benzoyl)-thiazol-2-ylamino]-N-(1-benzyl-piperidin-4-yl)-benzamide] | 210 | 9 | 79 |  |  |  | 
CN(C)c1ccc(NC(=O)c2ccc(Nc3nc(N)c(C(=O)c4c(F)cccc4F)s3)cc2)cc1 [Example A16, 4-[4-Amino-5-(2,6-difluoro-benzoyl)-thiazol-2-ylamino]-N-(4-dimethylamino-phenyl)-benzamide] | 170 | 25 | 68 |  |  |  | 
CNC(C)(C)CNC(=O)c1ccc(Nc2nc(N)c(C(=O)c3c(F)cccc3F)s2)cc1 [Example A18, 4-{4-Amino-5-[1-(2,6-difluoro-phenyl)-methanoyl]-thiazol-2-ylamino}-N-(2-methyl-2-methylamino-propyl)-benzamide Acetic Acid Salt] | 920 | 6 | 190 |  |  |  | 
COc1ccc(C)c(NC(=O)c2ccc(Nc3nc(N)c(C(=O)c4c(F)cccc4F)s3)cc2)c1 [Example A19, 4-[4-Amino-5-(2,6-difluoro-benzoyl)-thiazol-2-ylamino]-N-(5-methoxy-2-methyl-phenyl)-benzamide] | 110 | 105 | 64 |  |  |  | 
Nc1nc(Nc2ccc(C(=O)NC3Cc4ccccc4C3)cc2)sc1C(=O)c1c(F)cccc1F [Example A22, 4-[4-Amino-5-(2,6-difluoro-benzoyl)-thiazol-2-ylamino]-N-indan-2-yl-benzamide] | 170 | 5 | 6 |  |  |  | 
CC(C)N(CCNC(=O)c1ccc(Nc2nc(N)c(C(=O)c3c(F)cccc3F)s2)cc1)C(C)C [Example A23, 4-[4-Amino-5-(2,6-difluoro-benzoyl)-thiazol-2-ylamino]-N-(2-diisopropylamino-ethyl)-benzamide] | 100 | 8 | 130 |  |  |  | 
Nc1nc(Nc2ccc(C(=O)Nc3ccc(CCO)cc3)cc2)sc1C(=O)c1c(F)cccc1F [Example A24, 4-[4-Amino-5-(2,6-difluoro-benzoyl)-thiazol-2-ylamino]-N-[4-(2-hydroxy-ethyl)-phenyl]-benzamide] | 160 | 94 | 100 |  |  |  | 
Nc1nc(Nc2ccc(C(=O)Nc3cccnc3)cc2)sc1C(=O)c1c(F)cccc1F [Example A27, 4-[4-Amino-5-(2,6-difluoro-benzoyl)-thiazol-2-ylamino]-N-(pyridin-3-yl)-benzamide] |  | 41 | 66 |  |  |  | 
CN(C)CCNC(=O)c1ccc(Nc2nc(N)c(C(=O)C34CC5CC(CC(C5)C3)C4)s2)cc1 [Example A58, 4-[5-(1-Adamantan-1-yl-methanoyl)-4-amino-thiazol-2-ylamino]-N-(2-dimethylamino-ethyl)-benzamide] |  | 1000 | 3400 |  |  |  | 
Nc1nc(Nc2ccc(C(=O)NCCOCCO)cc2)sc1C(=O)c1c(Cl)cccc1Cl [Example B5, 4-[4-Amino-5-(2,6-dichloro-benzoyl)-thiazol-2-ylamino]-N-[2-(2-hydroxy-ethoxy)-ethyl]-benzamide] |  | 59 | 150 |  |  |  | 
